Measurements published in patent US20210236664A1, “ALPHA PARTICLE FORMULATIONS FOR TREATMENT OF SOLID TUMORS” (The Johns Hopkins University, priority 2018, published 2021).

Assays:
[1] = Octanol partition coefficient
Source text: Partition coefficients will be as previously described with some minor modifications. Decristoforo, C., et al., 2008. Octanol and saline (pH=7.4) will be used to assess the […] of the proposed compounds. Briefly, the radiolabeled ^111In- and ^225Ac-labeled DOTA(GA)-alkyl chelates will be vortexed with octanol and saline then centrifuged to separate layers. Aliquots (3) from each layer will be removed and counted. The […] will be determined using the following equations:
Poct/saline=Log([activity]octanol/[activity]saline).
A greater than 95% purity was obtained following purification with a Seppak.

Hep G2 tumor = assay: Tumor retention after intra-tumoral injection in hepatocellular carcinoma mouse model; assay type: in vivo, mice; conditions: n=3
Procedure: ^111In-DOTA-tetradecylamine(TDA) was synthesized with a radiolabeling yield >95%. The retention of ^111In-DOTA-TDA within a hepatocellular carcinoma mouse model was evaluated; Hep G2 tumor-bearing SCID mice (24 hours, n=3) and NCG mice (48 hours, n=3) following intra-tumoral injections of ^111In-DOTA-TDA alone or as a Lipiodol emulsion (FIG. 6).

[2] = system: castration resistant prostate cancer; conditions: castration resistant prostate cancer patients; cited from earlier work
bladder cancer = conditions: survive >300 d following treatment; cited from earlier work

## ^111In-DOTA-tetradecylamine [^111In-DOTA-TDA]
[1]
  Log Poct: 1.57±0.005
Hep G2 tumor; 24 hours, Hep G2 tumor-bearing SCID mice
  uptake within the tumor: 103±65.0 % ID/g
Hep G2 tumor; 48 hours, Hep G2 tumor-bearing NCG mice
  uptake within the tumor: 20.0±15.9 % ID/g

## [Cl][223Ra][Cl] [XOFIGO®, Radium-223 Dichloride]
[2]
  increased survival benefit: 2.8 month

## CO[C@@]12[C@H](COC(N)=O)C3=C(C(=O)C(C)=C(N)C3=O)N1C[C@@H]1N[C@@H]12 [mitomycin C]
Bladder cancer
  survival of mice: 40%
